Calls of active or inactive are those of the source. The calls are words filed in the database; no cut-off is given here.
How the values were obtained:
[1] = system: NCI-H23; assay: Growth inhibition of human NCI-H23 cells after 48 hrs by SRB assay; format: functional; details: NCI-H23, 48 h
[2] = system: HCT-15; assay: Growth inhibition of human HCT15 cells after 48 hrs by SRB assay; format: functional; details: HCT-15, 48 h
[3] = target: Rho-related GTP-binding protein RhoB (Homo sapiens) (UniProt P62745); assay: Transactivation of RhoB (unknown origin) transfected in human HeLa cells at 5 uM measured over 10 secs by dual luciferase reporter gene assay; format: cell-based
Rho-related GTP-binding protein RhoB (Homo sapiens), sequence (P62745 whole entry): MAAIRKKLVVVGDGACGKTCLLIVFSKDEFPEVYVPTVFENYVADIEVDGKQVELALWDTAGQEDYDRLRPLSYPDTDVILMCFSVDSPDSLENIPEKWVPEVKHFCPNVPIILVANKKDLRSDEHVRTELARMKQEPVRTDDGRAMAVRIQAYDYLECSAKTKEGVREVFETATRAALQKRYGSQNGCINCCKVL

[4] = system: NUGC-3; assay: Growth inhibition of human NUGC3 cells after 48 hrs by SRB assay; format: functional; details: NUGC-3, 48 h
[5] = system: ACHN; assay: Growth inhibition of human ACHN cells after 48 hrs by SRB assay; format: functional
[6] = system: MDA-MB-231; assay: Growth inhibition of human MDA-MB-231 cells after 48 hrs by SRB assay; format: functional; details: MDA-MB-231, 48 h
[7] = system: PC-3; assay: Growth inhibition of human PC3 cells after 48 hrs by SRB assay; format: functional; details: PC-3, 48 h
[8] = system: PC-3; assay: Growth of human PC3 cells at 10 uM after 48 hrs by SRB assay; details: PC-3, 48 h
[9] = system: NUGC-3; assay: Growth of human NUGC3 cells at 1 uM after 48 hrs by SRB assay; details: NUGC-3, 48 h
[10] = system: ACHN; assay: Growth of human ACHN cells at 10 uM after 48 hrs by SRB assay
[11] = system: HCT-15; assay: Growth of human HCT15 cells at 3 uM after 48 hrs by SRB assay; details: HCT-15, 48 h
[12] = system: ACHN; assay: Growth of human ACHN cells at 0.1 uM after 48 hrs by SRB assay
[13] = system: ACHN; assay: Growth of human ACHN cells at 0.3 uM after 48 hrs by SRB assay
[14] = system: NUGC-3; assay: Growth of human NUGC3 cells at 0.1 uM after 48 hrs by SRB assay; details: NUGC-3, 48 h
[15] = system: NUGC-3; assay: Growth of human NUGC3 cells at 0.3 uM after 48 hrs by SRB assay; details: NUGC-3, 48 h
[16] = system: HCT-15; assay: Growth of human HCT15 cells at 0.3 uM after 48 hrs by SRB assay; details: HCT-15, 48 h
[17] = system: NCI-H23; assay: Growth of human NCI-H23 cells at 10 uM after 48 hrs by SRB assay; details: NCI-H23, 48 h
[18] = system: NCI-H23; assay: Growth of human NCI-H23 cells at 0.3 uM after 48 hrs by SRB assay; details: NCI-H23, 48 h
[19] = system: MDA-MB-231; assay: Growth of human MDA-MB-231 cells at 1 uM after 48 hrs by SRB assay; details: MDA-MB-231, 48 h
[20] = system: MDA-MB-231; assay: Growth of human MDA-MB-231 cells at 10 uM after 48 hrs by SRB assay; details: MDA-MB-231, 48 h
[21] = system: MDA-MB-231; assay: Growth of human MDA-MB-231 cells at 0.1 uM after 48 hrs by SRB assay; details: MDA-MB-231, 48 h
[22] = system: MDA-MB-231; assay: Growth of human MDA-MB-231 cells at 3 uM after 48 hrs by SRB assay; values are per cent of control; details: MDA-MB-231, 48 h
[23] = system: PC-3; assay: Growth inhibition of human PC3 cells at 1 uM after 48 hrs by SRB assay; values are per cent of control; details: PC-3, 48 h
[24] = system: PC-3; assay: Growth inhibition of human PC3 cells at 3 uM after 48 hrs by SRB assay; values are per cent of control; details: PC-3, 48 h
[25] = system: ACHN; assay: Growth inhibition of human ACHN cells at 3 uM after 48 hrs by SRB assay; values are per cent of control
[26] = system: ACHN; assay: Growth inhibition of human ACHN cells at 1 uM after 48 hrs by SRB assay; values are per cent of control
[27] = system: NUGC-3; assay: Growth inhibition of human NUGC3 cells at 3 uM after 48 hrs by SRB assay; values are per cent of control; details: NUGC-3, 48 h
[28] = system: PC-3; assay: Growth inhibition of human PC3 cells at 0.1 uM after 48 hrs by SRB assay; values are per cent of control; details: PC-3, 48 h
[29] = system: PC-3; assay: Growth inhibition of human PC3 cells at 0.3 uM after 48 hrs by SRB assay; values are per cent of control; details: PC-3, 48 h
[30] = system: HCT-15; assay: Growth inhibition of human HCT15 cells at 1 uM after 48 hrs by SRB assay; values are per cent of control; details: HCT-15, 48 h
[31] = system: NUGC-3; assay: Growth inhibition of human NUGC3 cells at 10 uM after 48 hrs by SRB assay; values are per cent of control; details: NUGC-3, 48 h
[32] = system: HCT-15; assay: Growth inhibition of human HCT15 cells at 10 uM after 48 hrs by SRB assay; values are per cent of control; details: HCT-15, 48 h
[33] = system: NCI-H23; assay: Growth inhibition of human NCI-H23 cells at 1 uM after 48 hrs by SRB assay; values are per cent of control; details: NCI-H23, 48 h
[34] = system: NCI-H23; assay: Growth inhibition of human NCI-H23 cells at 3 uM after 48 hrs by SRB assay; values are per cent of control; details: NCI-H23, 48 h
[35] = system: HCT-15; assay: Growth inhibition of human HCT15 cells at 0.1 uM after 48 hrs by SRB assay; values are per cent of control; details: HCT-15, 48 h
[36] = system: NCI-H23; assay: Growth inhibition of human NCI-H23 cells at 0.1 uM after 48 hrs by SRB assay; values are per cent of control; details: NCI-H23, 48 h
[37] = system: MDA-MB-231; assay: Growth inhibition of human MDA-MB-231 cells at 0.3 uM after 48 hrs by SRB assay; values are per cent of control; details: MDA-MB-231, 48 h

SMILES	GI50 [1] [nM]	GI50 [2] [nM]	Activity [3]	GI50 [4] [nM]	GI50 [5] [nM]	GI50 [6] [nM]	GI50 [7] [nM]	growth, % of control at 10 µM [8] [%]	growth, % of control at 1 µM [9] [%]	growth, % of control at 10 µM [10] [%]	growth, % of control at 3 µM [11] [%]	growth, % of control at 0.1 µM [12] [%]	growth, % of control at 0.3 µM [13] [%]	growth, % of control at 0.1 µM [14] [%]	growth, % of control at 0.3 µM [15] [%]	growth, % of control at 0.3 µM [16] [%]	growth, % of control at 10 µM [17] [%]	growth, % of control at 0.3 µM [18] [%]	growth, % of control at 1 µM [19] [%]	growth, % of control at 10 µM [20] [%]	also measured
CCCCCCCCCCCCCCS(=O)(=O)NCCC[N+](C)(C)CC	330	1140	Active	290	1640	1170	300	-11.5	34	24.5	36.9	91.4	91.4	85.1	69	94.5	-45.5	88.7	66.2	23.9	growth, % of control at 0.1 µM [21]: 83.1%; growth, % of control at 3 µM [22]: 43.8%; growth, % of control at 1 µM [23]: 33.4%; growth, % of control at 3 µM [24]: 6.9%; growth, % of control at 3 µM [25]: 42.5%; growth, % of control at 1 µM [26]: 92.5%; growth, % of control at 3 µM [27]: 11.2%; growth, % of control at 0.1 µM [28]: 89.8%; growth, % of control at 0.3 µM [29]: 72.7%; growth, % of control at 1 µM [30]: 68.2%; growth, % of control at 10 µM [31]: -4.7%; growth, % of control at 10 µM [32]: 23.4%; growth, % of control at 1 µM [33]: 24%; growth, % of control at 3 µM [34]: -10.6%; growth, % of control at 0.1 µM [35]: 97%; growth, % of control at 0.1 µM [36]: 93.3%; growth, % of control at 0.3 µM [37]: 86.4%
CCCCCCCCCCCCCCS(=O)(=O)NCC(C)(C)C[N+](C)(C)C	310	1700	Active	320	2600	2110	350	-0.3	35.9	37.4	48.2	91.3	84.8	81.8	75.5	94.3	-30.5	76.8	77.6	31	growth, % of control at 0.1 µM [21]: 94.3%; growth, % of control at 3 µM [22]: 55.9%; growth, % of control at 1 µM [23]: 46%; growth, % of control at 3 µM [24]: 9.8%; growth, % of control at 3 µM [25]: 57.1%; growth, % of control at 1 µM [26]: 79.4%; growth, % of control at 3 µM [27]: 8.9%; growth, % of control at 0.1 µM [28]: 76.1%; growth, % of control at 0.3 µM [29]: 73.8%; growth, % of control at 1 µM [30]: 89.2%; growth, % of control at 10 µM [31]: -8.2%; growth, % of control at 10 µM [32]: 19.4%; growth, % of control at 1 µM [33]: 31.4%; growth, % of control at 3 µM [34]: 1.5%; growth, % of control at 0.1 µM [35]: 98.1%; growth, % of control at 0.1 µM [36]: 88.5%; growth, % of control at 0.3 µM [37]: 88.5%
CCCCCCCCCCCCCCS(=O)(=O)N(C)CC[N+](CC)(CC)CC	470	3460	Active	320	1460	870	520	-11.5	20.9	21.2	72.5	96.4	94.5	92	83.8	96.6	-5.6	90.1	54.2	17.2	growth, % of control at 0.1 µM [21]: 96.4%; growth, % of control at 3 µM [22]: 34.1%; growth, % of control at 1 µM [23]: 41.4%; growth, % of control at 3 µM [24]: 0.9%; growth, % of control at 3 µM [25]: 48.6%; growth, % of control at 1 µM [26]: 68.7%; growth, % of control at 3 µM [27]: 7.9%; growth, % of control at 0.1 µM [28]: 103%; growth, % of control at 0.3 µM [29]: 102%; growth, % of control at 1 µM [30]: 87.1%; growth, % of control at 10 µM [31]: -1.3%; growth, % of control at 10 µM [32]: 36%; growth, % of control at 1 µM [33]: 39.8%; growth, % of control at 3 µM [34]: 15%; growth, % of control at 0.1 µM [35]: 95.3%; growth, % of control at 0.1 µM [36]: 97.3%; growth, % of control at 0.3 µM [37]: 95.3%
CCCCCCCCCCCCCCS(=O)(=O)NCCC[N+](C)(C)C [TRIMETHYL-[3-(TETRADECANE-1-SULFONYLAMINO)-PROPYL]-AMMONIUM IODIDE]	460	940	Active	380	2040	1400	450	-7.8	43.1	29.7	31.5	88	88.6	84.4	73.2	91.2	-34.5	86.5	76.7	25.1	growth, % of control at 0.1 µM [21]: 84.6%; growth, % of control at 3 µM [22]: 45.3%; growth, % of control at 1 µM [23]: 52.2%; growth, % of control at 3 µM [24]: 9.5%; growth, % of control at 3 µM [25]: 49.9%; growth, % of control at 1 µM [26]: 96.8%; growth, % of control at 3 µM [27]: 21.5%; growth, % of control at 0.1 µM [28]: 86.7%; growth, % of control at 0.3 µM [29]: 80.6%; growth, % of control at 1 µM [30]: 66.5%; growth, % of control at 10 µM [31]: 5.4%; growth, % of control at 10 µM [32]: 22%; growth, % of control at 1 µM [33]: 48.4%; growth, % of control at 3 µM [34]: -5.1%; growth, % of control at 0.1 µM [35]: 94.3%; growth, % of control at 0.1 µM [36]: 84.7%; growth, % of control at 0.3 µM [37]: 86.4%
CCCCCCCCCCCCCCS(=O)(=O)N(C)CC[N+](C)(CC)CC	710	2350	Active	520	1740	1220	820	-1.7	45.7	16.4	60.5	100	102	98.7	104	96.3	-0.5	91	81.5	16.5	growth, % of control at 0.1 µM [21]: 103%; growth, % of control at 3 µM [22]: 34.3%; growth, % of control at 1 µM [23]: 79.9%; growth, % of control at 3 µM [24]: 10.5%; growth, % of control at 3 µM [25]: 51.7%; growth, % of control at 1 µM [26]: 87.4%; growth, % of control at 3 µM [27]: 10.6%; growth, % of control at 0.1 µM [28]: 114%; growth, % of control at 0.3 µM [29]: 108%; growth, % of control at 1 µM [30]: 88.4%; growth, % of control at 10 µM [31]: 3.1%; growth, % of control at 10 µM [32]: 27%; growth, % of control at 1 µM [33]: 65.4%; growth, % of control at 3 µM [34]: 16.4%; growth, % of control at 0.1 µM [35]: 95%; growth, % of control at 0.1 µM [36]: 96.5%; growth, % of control at 0.3 µM [37]: 101%

From ChEMBL document CHEMBL2434921, “New synthetic aliphatic sulfonamido-quaternary ammonium salts as anticancer chemotherapeutic agents” (2013)
